Converted amounts (≈) assume the structure as drawn. “And” between values parts separate entries of the source, which are not always exact repeats. Equal entries are not always repeated.
How the values were obtained:
[1] = In vitro permeability assay in Caco-2 monolayers; settings: human, Caco-2
Caco-2 cell monolayers [2] = assay: In vitro permeability assay in Caco-2 monolayers; settings: direction AB, time 60 min
Mtb [3] = test system: Mtb; design: method as in PMID 37791784; settings: C3HeB/FeJ substrain, 2 months of therapy; cited from earlier work
Mtb [4] = test system: Mtb; design: method as in PMID 37791784, PMID 34370580; settings: in vitro, ref PMID 37791784, PMID 34370580; cited from earlier work
Caco-2 cell monolayers [5] = test system: Caco-2 cell monolayers
Mtb H37Rv = assay: Prolonged BTZ-043 treatment of Mtb-infected IL-13tg mice (pulmonary CFU); type: in vivo, Mycobacterium tuberculosis
[6] = IL-13tg, mouse, in vivo
[7] = MALDI imaging and penetration analysis in centrally necrotizing granulomas; settings: for BTZ-043 distribution in granulomas by MALDI imaging: IL-13tg mice
in vitro = settings: human
H37Rv = settings: in vitro, against H37Rv; cited from earlier work

C[C@H]1COC2(CCN(c3nc(=O)c4cc(C(F)(F)F)cc([N+](=O)[O-])c4s3)CC2)O1 [BTZ-043]
Papp A→B at 120 min [1]: 9.44 to 11.3 ×10⁻⁶ cm/s | Papp at 120 min, 4 µg/mL [1]: 11.3 ×10⁻⁶ cm/s | efflux ratio at 120 min, 1 µg/mL [1]: 0.73 | efflux ratio at 120 min, 4 µg/mL [1]: 1.14 | Concentration (Caco-2 cell monolayers [2]; BTZ-043 4 μg mL^-1, replicates 1-3): 124.355 ng/mL | Calculated Amount (Caco-2 cell monolayers [2]; BTZ-043 (4 µg mL^-1), compartment baso): 124.355 | effect on pulmonary bacterial load (Mtb [3]): significant reduction of the pulmonary bacterial load | caseum activity assay result (Mtb [4]): negative | permeability classification (Caco-2 cell monolayers [5]): permeable drug | transport mechanism indicated by efflux ratios (Caco-2 cell monolayers [5]): passive diffusion is dominant over active transport mechanisms | pulmonary CFU / mouse (Mtb H37Rv; BTZ-043 [250 mg/kg], 4-6 weeks of therapy, individual mice, female and male, 250 mg/kg): 823500 CFU / mouse and 616966 CFU / mouse and 3482791 CFU / mouse and 4043721 CFU / mouse and 7632000 CFU / mouse | reduction of the pulmonary bacterial burden compared to the vehicle group (Mtb H37Rv; IL-13tg mice, 250 mg/kg 5 times a week, prolonged therapy (4 to 6 weeks)): more than 2 log10 CFU | penetration into the lesion by MALDI imaging [6]: penetration of BTZ-043 into the lesion was observed | BTZ-043 distribution in granulomas by MALDI imaging ([7]; 0.5 h and 2 h after the last administration): higher intensity in the layer of foamy macrophages than in the surrounding tissue and a low intensity in the necrotic center | BTZ-043 distribution in granulomas by MALDI imaging ([7]; 4 h after the last administration): evenly distributed across the granuloma, including a full penetration of the necrotic center | BTZ-043 distribution in granulomas by MALDI imaging ([7]; 8 h post-dose): still detected in the cellular compartment and the necrotic center of the lesion | BTZ-043 distribution in lung section by MALDI imaging ([7]; IL-13tg mouse, 2 h post-dose, 10 µm pixel size): higher abundance in the granuloma areas | Mean intensity ([7]; Left Granuloma, Distance 5 μm): 139.49 | Mean intensity ([7]; Left Granuloma, Distance 15 μm): 156.7 | Mean intensity ([7]; Left Granuloma, Distance 25 μm): 198.34 | Mean intensity ([7]; Left Granuloma, Distance 455 μm): 231.69 | Mean intensity ([7]; Left Granuloma, Distance 465 μm): 177.77 | Mean intensity ([7]; Left Granuloma, Distance 475 μm): 149.66 | Mean intensity ([7]; Left Granuloma, Distance 485 μm): 141.47 | Mean intensity ([7]; Left Granuloma, Distance 495 μm): 108.37 | Mean intensity ([7]; Left Granuloma, Distance -5 μm): 119.73 | Mean intensity ([7]; Left Granuloma, Distance -15 μm): 101.17 | Mean intensity ([7]; Left Granuloma, Distance -25 μm): 94.994 | Mean intensity ([7]; Left Granuloma, Distance -35 μm): 92.517 | Mean intensity ([7]; Left Granuloma, Distance -45 μm): 79.172 | Mean intensity ([7]; Left Granuloma, Distance -55 μm): 80.027 | Mean intensity ([7]; Left Granuloma, Distance -65 μm): 75.696 | Mean intensity ([7]; Left Granuloma, Distance -75 μm): 68.605 | Mean intensity ([7]; Left Granuloma, Distance -85 μm): 57.747 | Mean intensity ([7]; Left Granuloma, Distance -95 μm): 55.134 | Mean intensity ([7]; Left Granuloma, Distance -105 μm): 53.791 | Mean intensity ([7]; Left Granuloma, Distance -115 μm): 50.259 | Mean intensity ([7]; Left Granuloma, Distance -125 μm): 46.467 | Mean intensity ([7]; Left Granuloma, Distance -135 μm): 47.503 | Mean intensity ([7]; Left Granuloma, Distance -145 μm): 45.623 | Mean intensity ([7]; Left Granuloma, Distance -155 μm): 45.907 | Mean intensity ([7]; Left Granuloma, Distance -165 μm): 44.835 | Mean intensity ([7]; Left Granuloma, Distance -175 μm): 48.409 | Mean intensity ([7]; Left Granuloma, Distance -185 μm): 51.437 | Mean intensity ([7]; Left Granuloma, Distance -195 μm): 54.977 | Mean intensity ([7]; Left Granuloma, Distance -205 μm): 58.044 | Mean intensity ([7]; Left Granuloma, Distance -215 μm): 59.813 | Mean intensity ([7]; Left Granuloma, Distance -225 μm): 62.899 | Mean intensity ([7]; Left Granuloma, Distance -235 μm): 60.823 | Mean intensity ([7]; Left Granuloma, Distance -245 μm): 67.44 | Mean intensity ([7]; Left Granuloma, Distance -255 μm): 69.7 | Mean intensity ([7]; Left Granuloma, Distance -265 μm): 69.289 | Mean intensity ([7]; Left Granuloma, Distance -275 μm): 70.893 | Mean intensity ([7]; Left Granuloma, Distance -285 μm): 72.505 | Mean intensity ([7]; Left Granuloma, Distance -295 μm): 79.349 | Mean intensity ([7]; Left Granuloma, Distance -305 μm): 78.856 | Mean intensity ([7]; Left Granuloma, Distance -315 μm): 77.402 | Mean intensity ([7]; Left Granuloma, Distance -325 μm): 81.899 | Mean intensity ([7]; Left Granuloma, Distance -335 μm): 87.061 | Mean intensity ([7]; Left Granuloma, Distance -345 μm): 86.34 | Mean intensity ([7]; Left Granuloma, Distance -355 μm): 78.295 | Mean intensity ([7]; Left Granuloma, Distance -365 μm): 77.954 | Mean intensity ([7]; Left Granuloma, Distance -375 μm): 75.379 | Mean intensity ([7]; Left Granuloma, Distance -385 μm): 74.434 | Mean intensity ([7]; Left Granuloma, Distance -395 μm): 71.834 | Mean intensity ([7]; Left Granuloma, Distance -405 μm): 68.248 | Mean intensity ([7]; Left Granuloma, Distance -415 μm): 72.627 | Mean intensity ([7]; Left Granuloma, Distance -425 μm): 59.053 | Mean intensity ([7]; Left Granuloma, Distance -435 μm): 63.125 | Mean intensity ([7]; Left Granuloma, Distance -445 μm): 62.385 | Mean intensity ([7]; Right Granuloma, Distance 5 μm): 197.71 | Mean intensity ([7]; Right Granuloma, Distance 15 μm): 215.58 | Mean intensity ([7]; Right Granuloma, Distance -5 μm): 125.01 | Mean intensity ([7]; Right Granuloma, Distance -15 μm): 127.96 | Mean intensity ([7]; Right Granuloma, Distance -25 μm): 106.25 | Mean intensity ([7]; Right Granuloma, Distance -35 μm): 89.663 | Mean intensity ([7]; Right Granuloma, Distance -45 μm): 81.533 | Mean intensity ([7]; Right Granuloma, Distance -55 μm): 68.214 | Mean intensity ([7]; Right Granuloma, Distance -65 μm): 66.172 | Mean intensity ([7]; Right Granuloma, Distance -75 μm): 61.043 | Mean intensity ([7]; Right Granuloma, Distance -85 μm): 54.281 | Mean intensity ([7]; Right Granuloma, Distance -95 μm): 56.521 | Mean intensity ([7]; Right Granuloma, Distance -105 μm): 53.591 | Mean intensity ([7]; Right Granuloma, Distance -115 μm): 52.38 | Mean intensity ([7]; Right Granuloma, Distance -125 μm): 54.234 | Mean intensity ([7]; Right Granuloma, Distance -135 μm): 48.899 | Mean intensity ([7]; Right Granuloma, Distance -145 μm): 60.041 | Mean intensity ([7]; Right Granuloma, Distance -155 μm): 59.51 | Mean intensity ([7]; Right Granuloma, Distance -165 μm): 58.931 | Mean intensity ([7]; Right Granuloma, Distance -175 μm): 63.443 | Mean intensity ([7]; Right Granuloma, Distance -185 μm): 66.482 | Mean intensity ([7]; Right Granuloma, Distance -195 μm): 69.634 | Mean intensity ([7]; Right Granuloma, Distance -205 μm): 66.172 | Mean intensity ([7]; Right Granuloma, Distance -215 μm): 74.546 | Mean intensity ([7]; Right Granuloma, Distance -225 μm): 72.092 | Mean intensity ([7]; Right Granuloma, Distance -235 μm): 66.755 | Mean intensity ([7]; Right Granuloma, Distance -245 μm): 74.961 | Mean intensity ([7]; Right Granuloma, Distance -255 μm): 64.422 | Mean intensity ([7]; Right Granuloma, Distance -265 μm): 67.123 | Mean intensity ([7]; Right Granuloma, Distance -275 μm): 62.093 | Mean intensity ([7]; Right Granuloma, Distance -285 μm): 63.383 | Mean intensity ([7]; Right Granuloma, Distance -295 μm): 60.578 | Mean intensity ([7]; Right Granuloma, Distance -305 μm): 57.529 | Mean intensity ([7]; Right Granuloma, Distance -315 μm): 54.535 | Mean intensity ([7]; Right Granuloma, Distance -325 μm): 51.043 | Mean intensity ([7]; Right Granuloma, Distance -335 μm): 51.438 | Mean intensity ([7]; Right Granuloma, Distance -345 μm): 52.76 | Mean intensity ([7]; Right Granuloma, Distance -355 μm): 52.538 | Mean intensity ([7]; Right Granuloma, Distance -365 μm): 48.918 | Mean intensity ([7]; Right Granuloma, Distance -375 μm): 51.113 | Mean intensity ([7]; Right Granuloma, Distance -385 μm): 46.016 | Mean intensity ([7]; Right Granuloma, Distance -395 μm): 55.943 | Mean intensity ([7]; Right Granuloma, Distance -405 μm): 55.946 | Mean intensity ([7]; Right Granuloma, Distance -415 μm): 56.244 | Mean intensity ([7]; Right Granuloma, Distance -425 μm): 54.068 | Mean intensity ([7]; Right Granuloma, Distance -435 μm): 59.943 | Mean intensity ([7]; Right Granuloma, Distance -445 μm): 57.116 | Papp B→A at 120 min (in vitro; Caco-2): 6.9 to 12.9 ×10⁻⁶ cm/s | Papp at 120 min, 1 µg/mL (in vitro; Caco-2, Mean Papp): 9.44 ×10⁻⁶ cm/s | Papp at 120 min, 4 µg/mL (in vitro; Caco-2, Mean Papp): 12.9 ×10⁻⁶ cm/s | MIC (H37Rv): 1 ng/mL (≈ 2.32 nM)
